{"source": "patent US6750212B2", "about": "“Photochemotherapeutic compositions” (PhotoCure AS, priority 1997, dated 2004)", "key": {"Colon carcinoma WiDr": {"tested_on": "Colon carcinoma WiDr", "test": "PDT of WiDr colon carcinoma in nude mice, Curelight broad-band lamp one hour after drug, regression/regrowth time", "type": "in vivo, Balb/c nu/nu nude mice", "details": "for effect on tumor growth after PDT: Example 5.1, FIG. 4, 5-ALA 250 mg/kg i.p. and/or chlorin e6 1 mg/kg i.v., lamp 161 mW/cm^2 15 minutes, one hour after injection; for anti-tumour effect after PDT: Example 5.2, FIG. 5, ALA-methyl ester 273 mg/kg i.p. and/or A1PcS2a 1 mg/kg i.v.", "description": "5-ALA (ALA) and ALA-Methyl ester (ME) were dissolved in isotonic saline to a final concentration of […].\nALA-Butyl ester (BU) was dissolved in a small amouont of ethanol and diluted further in isotonic saline to a final concentration of […] (final ethanol concentration was 2% v/v).\nAluminium phthalocyanine di-sulfonate (A1PcS2a) (Porphyrin Products Inc.) dissolved in a few drops of 1M NaOH and diluted in phosphate buffered saline (PBS, 10 MM Na-phosphate pH 7.4/150 mM NaCl) to a final concentration of 0.25 mg/ml.\nChlorin e6 (e6)(Porphyrin Products Inc.) was dissolved in PBS to a final concentration of 0.25 mg/ml.\nALA, ALA methyl ester or ALA butyl ester were administered intraperitoneally (i.p.), whereas the sensitizers were injected intravenously (i.v.).\nAll animals received the same amount of ALA (1.5 mmole), either as the free acid or in the form of an ester. […]\nSuspensions of the human tumour (Colon carcinoma WiDr-propagated by serial transplantation) was prepared from non-necrotic areas of the respective tumours and injected (20 μl) into the right hind foot of each mouse. […] Injection volume: 100 μl per mouse (approx. 25 g bodyweight).\nIllumination occurred one hour after injection of the drugs instead of three hours that was used in previous examples. In contrast to previous examples, a broad-band lamp that covers the range of 600 to 700 nm (Curelight, patent applied for by PhotoCure AS) was used instead of the laser. This was because the light should cover combinations of phthalocyanines (absorption maximum 670 nm) and protoporphyrin IX (absorption maximum 630 nm) induced by ALA or ALA-esters, respectively.\nThe average tumour volume in each group (mean ±SD) was calculated and plotted against time. The experiment was terminated when the tumor volume had reached 4-5 times the initial volume.\nOne hour after injection of the drugs the mice were irradiated using the Curelight broad-band lamp (161 mW/cm^2 for 15 minutes-144.9 J/cm^2).\nResponses of the tumors were evaluated as regression/regrowth time. The size of the tumours were measured every second day and the tumour volumes calculated according to the formula in Example 2. The mice were sacrificed when the tumour volume had reached 5 times the initial volume. For each time point, the mean (and the standard deviation of the mean) tumour volume (n=4-5) were calculated. The data were then submitted to statistical analysis (Q-test/90% confidence interval) and extreme values were rejected."}, "[1]": {"tested_on": "Human rectal papillary villous adenomas", "test": "Fluorescence localization in human rectal papillary villous adenomas by fluorescence microscopy", "type": "in vivo", "details": "4.5 hours after oral administration of 60 mg/kg ALA; FIG. 3 B", "description": "Human rectal papillary villous adenomas from 2 patients with severe dysplasia and with a diarrheal history for some months before diagnosis were sampled 44 hours after intravenous injection of 2 mg/kg body weight PHOTOFRIN® vascular stroma-localizing photosensitizer or 4.5 hours after oral administration of 60 mg/kg ALA. The samples were immediately immersed in liquid nitrogen, then mounted in medium (Tissue Tek II embedding compound: BDH, Poole, UK). Frozen tissue sections were cut with a cryostat to a thickness of 8 Am and mounted on clean glass slides. The fluorescence localization patterns of ALA-induced PpIX and PHOTOFRIN were studied by fluorescence microscopy. The fluorescence microscopy was carried out with an Axioplan microscope (Zeiss, Germany). The filter combination comprised a 390-440 nm excitation filter, a 460 nm beam splitter and a >600 nm emission filter. The fluorescence images were recorded by a CCD camera (Astromed CCD 3200, Cambridge, UK) and an image processing unit (Astromed/Visilog, PC 486DX2 66 MHz VL)."}, "[2]": {"tested_on": "WiDr human colonic carcinoma", "test": "PDT of WiDr human colonic carcinoma in nude mice, laser light 3 hours after drug, tumor regression/regrowth time", "type": "in vivo, Balb/c nu/nu nude mice", "text": "5-aminolevulinic acid (ALA) hydrochloride was purchased from Sigma Chemical Company (St. Louis, Mo.). ALA was freshly dissolved in isotonic saline and given intraperitoneally to mice. PHOTOFRIN® vascular stroma-localizing photosensitizer was obtained from Quadra Logic Technologies (Vancouver, Canada). The solution of PHOTOFRIN® vascular stroma-localizing photosensitizer was made up in isotonic solution containing 5% dextrose and given to mice intravenously via the tail vein.\nFemale Balb/c nu/nu nude mice were obtained from The Animal Department, The Norwegian Radium Hospital, housed 10 per cage and kept under specific-pathogen-free conditions. The mice were 6 weeks old and weighed 20-22 g when the experiments started. The WiDr human colonic carcinoma, used in the present study, was propagated by serial transplantation into the nude mice. Non-necrotic tumor material for inoculation was obtained by sterile dissection of large flange tumors from syngeneic mice. Macroscopically viable tumor tissue was gently minced with a pair of scissors and forced repeatedly through sterile needles of diminishing sizes from 19-gauge to 25-gauge to make a tumor-tissue suspension, 0.02 ml of which was then injected into the dorsal side of the right hind foot of each mouse. The rate of successful transplantations was nearly 100% in the present experiments. […] The tumor volume was calculated using the following formula: […]\nwhere D1, D2 and D3 are three orthogonal diameters of the tumors which were measured daily by a caliper.\nUnanesthetized mice were fixed in Lucite jigs specially designed for irradiation. The tumor area was exposed to red light from a dicyanomethylane-2-methyl-6-(p-dimethylaminostyryl)-4 H-pyran (DCM) dye laser pumped by a 5W argon ion laser (Spectra Physics, 164). The tuning range was 610-690 nm. The dye laser was tuned at 632 for both ALA-derived PpIX and PHOTOFRIN®vascular stroma-localizing photosensitizer, the tuning being controlled by means of a monochromator. […]\nResponses of the treated tumors were evaluated as described previously."}, "[3]": {"details": "Example 5.4, FIG. 7, 5-ALA butyl ester 338 mg/kg i.p. and/or A1PcS2a 1 mg/kg i.v., lamp one hour after injection"}, "[4]": {"details": "Example 3, FIG. 2, ALA 250 mg/kg i.p. (632 nm) and/or m-THPC 75 μg/kg i.v. (652 nm), laser light 3 hours after drug"}, "[5]": {"details": "Example 5.5, FIG. 8, 5-ALA methyl ester 273 mg/kg i.p. and/or A1PcS4 1 mg/kg i.v., lamp one hour after injection"}}, "data": [{"compound": "CCCCOC(=O)CCC(=O)CN", "note": "[ALA butyl ester, 5-ALA butyl ester]", "values": [{"measurement": "time for tumours to reach 4 times the initial volume", "setting": "Colon carcinoma WiDr; Example 5.3, FIG. 6, 5-ALA butyl ester 338 mg/kg i.p. alone, lamp one hour after injection", "result": 11, "unit": "days"}, {"measurement": "effect on tumour growth after PDT", "setting": "Colon carcinoma WiDr; [3]", "result": "almost no effect"}]}, {"compound": "NCC(=O)CCC(=O)O", "note": "[ALA, 5-aminolevulinic acid]", "values": [{"measurement": "effect on tumor growth after PDT", "setting": "Colon carcinoma WiDr", "result": "had no effect"}, {"measurement": "fluorescence localization of ALA-induced porphyrins in tumor tissue", "setting": "[1]", "result": "almost entirely localized within the tumor cells"}, {"measurement": "effect on tumor growth after PDT", "setting": "[2]; Example 2, FIG. 1, ALA 250 mg/kg i.p. and/or PHOTOFRIN 1 mg/kg i.v., laser 632 nm, 150 mW/cm^2 for 15 min, 3 hours after drug", "result": "had an effect on the tumor growth"}, {"measurement": "effect on tumor growth after PDT", "setting": "[2]; [4]", "result": "had an effect on the tumor growth"}]}, {"compound": "COC(=O)CCC(=O)CN", "note": "[ALA-methyl ester, 5-ALA methyl ester]", "values": [{"measurement": "anti-tumour effect after PDT", "setting": "Colon carcinoma WiDr; lamp one hour after injection", "result": "had no anti-tumour effect"}, {"measurement": "effect on tumour growth after PDT", "setting": "Colon carcinoma WiDr; [5]", "result": "did not have any effect on tumor growth"}]}, {"compound": "C=Cc1c(C)c2cc3nc(c(CC(=O)O)c4[nH]c(cc5nc(cc1[nH]2)C(C)=C5CC)c(C)c4C(=O)O)[C@@H](CCC(=O)O)[C@@H]3C", "note": "[chlorin e6]", "values": [{"measurement": "effect on tumor growth after PDT", "setting": "Colon carcinoma WiDr", "result": "had no effect"}]}, {"compound": "Oc1cccc(-c2c3nc(c(-c4cccc(O)c4)c4ccc([nH]4)c(-c4cccc(O)c4)c4nc(c(-c5cccc(O)c5)c5ccc2[nH]5)CC4)C=C3)c1", "note": "[m-THPC, tetra(meso-hydroxyphenyl)chlorin]", "values": [{"measurement": "effect on tumor growth after PDT", "setting": "[2]; [4]", "result": "no effect"}]}, {"compound": "Aluminium phthalocyanine di-sulfonate [A1PcS2a]", "values": [{"measurement": "anti-tumour effect after PDT", "setting": "Colon carcinoma WiDr; lamp one hour after injection", "result": "a slight effect"}, {"measurement": "effect on tumour growth after PDT", "setting": "Colon carcinoma WiDr; [3]", "result": "immediate effect"}, {"measurement": "time to 4× initial tumour volume", "setting": "Colon carcinoma WiDr; Example 5.4, FIG. 7, A1PcS2a 1 mg/kg i.v. alone, lamp one hour after injection", "result": "≤ 14", "unit": "days"}]}, {"compound": "Aluminium phthalocyanine tetra-sulfonate [A1PcS4]", "values": [{"measurement": "effect on tumour growth after PDT", "setting": "Colon carcinoma WiDr; Example 5.3, FIG. 6, 5-ALA butyl ester 338 mg/kg i.p. and/or A1PcS4 1 mg/kg i.v., lamp one hour after injection", "result": "moderate effect on tumour growth"}, {"measurement": "effect on tumour growth after PDT", "setting": "Colon carcinoma WiDr; Example 5.3, FIG. 6, high dose A1PcS4 5 mg/kg i.v. alone, lamp one hour after injection", "result": "strongly delayed growth"}, {"measurement": "effect on tumour growth after PDT", "setting": "Colon carcinoma WiDr; [5]", "result": "intermediate effect"}]}]}
